# Experimental data from article PMC6009863, “Symmetric molecules with 1,4-triazole moieties as potent inhibitors of tumour-associated lactate dehydrogenase-A” (Journal of Enzyme Inhibition and Medicinal Chemistry, 2017).
# Test system: LDHA
# Test: not given
# Design: method as in PMID 30108883
# Conditions: docking-based virtual screening hit; read-out: IC50 (LDHA inhibition potency in vitro); cited from earlier work
row,SMILES,IC50
1,CCc1cc(=O)c(O)c([C@@H](CC(N)=O)c2cc3ccccc3n(CC(C)C)c2=O)o1 [C],0.33 µM

# Target: T1, recombinant human LDHA protein (Homo sapiens, UniProt P00338)
# T1 construct: purchased Abcam ab93699
# Test: LDHA inhibition assay (Lactate Dehydrogenase Assay Kit, colorimetric)
# Type: biochemical
# Conditions: mean from three different assays, colorimetric assay measuring absorbance at 450 nm, errors ±5–10%
# Method: All 15 symmetrical compounds were evaluated for their ability to inhibit LDHA, for the comparison galloflavin as a known isoform nonselective LDHA inhibitor[20] was used. Our choice of galloflavin was based on the fact that it is extensively studied as potent anticancer agents in recent years; additionally, galloflavin is already commercially available.
# Lactate Dehydrogenase Assay Kit (Abcam, ab102526) and recombinant human LDHA protein (Abcam, ab93699) were used to assess the inhibitory effect of the tested compounds. First we generated a NADH standard curve for colorimetric detection by measuring the OD (450 nm) at different molar amounts of NADH. The linear regression equation of the curve was derivatized in Graphpad Prism. Tested compounds were dissolved in DMSO and their inhibitory activity was assessed at 140 and 300 μM strength. Galloflavin (Sigma, SML0776) at the same molar concentration was used as a known LDH inhibitor. The master reaction mix composed of LDH assay buffer and 10 ng human LDHA […] per reaction was prepared. Tested compounds were added and the final reaction volume was adjusted to 50 µL. Absorbance at 450 nm was taken after 2-3 minutes (T-initial) and continued every minute for 118 mins (T-final). The change in measurement over time (delta A450) was calculated as T-final minus T-initial. The amount of NADH generated by the assay between T-initial and T-final was deduced by comparing the A450 of each sample to the standard NADH standard curve. […]
row,IC50,SMILES
1,128 µM,COc1cc(-c2cn(CC(=O)NCc3ccc(C(=O)O)cc3)nn2)cc(-c2cn(CC(=O)NCc3ccc(C(=O)O)cc3)nn2)c1 [Compound 21b]
2,127 µM,COc1cc(-c2cn(CC(=O)Nc3ccc(C(=O)O)cc3)nn2)cc(-c2cn(CC(=O)Nc3ccc(C(=O)O)cc3)nn2)c1 [Compound 20b]
3,156 µM,O=C(Cn1cc(-c2cncc(-c3cn(CC(=O)Nc4ccc([N+](=O)[O-])cc4)nn3)c2)nn1)Nc1ccc([N+](=O)[O-])cc1 [Compound 15c]
4,173 µM,COc1cc(-c2cn(CC(=O)NCc3ccc(S(N)(=O)=O)cc3)nn2)cc(-c2cn(CC(=O)NCc3ccc(S(N)(=O)=O)cc3)nn2)c1 [Compound 21a]
5,172 µM,O=C(Cn1cc(-c2cccc(-c3cn(CC(=O)Nc4ccc([N+](=O)[O-])cc4)nn3)c2)nn1)Nc1ccc([N+](=O)[O-])cc1 [Compound 7c]
6,117 µM,O=C(Cn1cc(-c2cncc(-c3cn(CC(=O)NCc4ccc(C(=O)O)cc4)nn3)c2)nn1)NCc1ccc(C(=O)O)cc1 [Compound 16b]
7,120 µM,O=C(Cn1cc(-c2cccc(-c3cn(CC(=O)Nc4ccc(C(=O)O)cc4)nn3)c2)nn1)Nc1ccc(C(=O)O)cc1 [Compound 7b]
8,157 µM,"O=c1oc2c(cc1O)oc(=O)c1cc(O)c(O)c(O)c12 [Galloflavin, reference compound]"
9,125 µM,O=C(Cn1cc(-c2cncc(-c3cn(CC(=O)Nc4ccc(C(=O)O)cc4)nn3)c2)nn1)Nc1ccc(C(=O)O)cc1 [Compound 15b]
10,163 µM,COc1cc(-c2cn(CC(=O)Nc3ccc([N+](=O)[O-])cc3)nn2)cc(-c2cn(CC(=O)Nc3ccc([N+](=O)[O-])cc3)nn2)c1 [Compound 20c]
11,128 µM,NS(=O)(=O)c1ccc(NC(=O)Cn2cc(-c3cccc(-c4cn(CC(=O)Nc5ccc(S(N)(=O)=O)cc5)nn4)c3)nn2)cc1 [Compound 7a]
12,165 µM,COc1cc(-c2cn(CC(=O)Nc3ccc(S(N)(=O)=O)cc3)nn2)cc(-c2cn(CC(=O)Nc3ccc(S(N)(=O)=O)cc3)nn2)c1 [Compound 20a]
13,156 µM,O=C(Cn1cc(-c2cccc(-c3cn(CC(=O)NCc4ccc(C(=O)O)cc4)nn3)c2)nn1)NCc1ccc(C(=O)O)cc1 [Compound 11b]
14,158 µM,NS(=O)(=O)c1ccc(CNC(=O)Cn2cc(-c3cccc(-c4cn(CC(=O)NCc5ccc(S(N)(=O)=O)cc5)nn4)c3)nn2)cc1 [Compound 11a]
15,136 µM,NS(=O)(=O)c1ccc(NC(=O)Cn2cc(-c3cncc(-c4cn(CC(=O)Nc5ccc(S(N)(=O)=O)cc5)nn4)c3)nn2)cc1 [Compound 15a]
16,174 µM,NS(=O)(=O)c1ccc(CNC(=O)Cn2cc(-c3cncc(-c4cn(CC(=O)NCc5ccc(S(N)(=O)=O)cc5)nn4)c3)nn2)cc1 [Compound 16a]

# Test system: LDHA
# Test: not given
# Design: method as in PMID 23302067
# Conditions: fragment-based hit identification series; read-out: IC50 (LDHA inhibition); cited from earlier work
row,SMILES,IC50
1,COc1cc(OC[C@@H](O)[C@@H](O)[C@H](O)[C@H](O)CNc2cc(F)cc(-c3ccc(C(=O)O)cn3)c2)c(Cl)cc1NC(=O)CSc1ccc(C(=O)O)cn1 [B],0.12 µM

# Test system: not given
# Test: not given
# Conditions: not given
row,melting point,SMILES
1,291 to 292 °C,O=C(Cn1cc(-c2cccc(-c3cn(CC(=O)Nc4ccc(C(=O)O)cc4)nn3)c2)nn1)Nc1ccc(C(=O)O)cc1 [Compound 7b]

# Test system: LDHA
# Test: not given
# Design: method as in PMID 22417091
# Conditions: NMR and SPR fragment based hit identification series; read-out: IC50 (LDHA inhibition); cited from earlier work
row,SMILES,IC50
1,CCCSc1nc2ccc(NC(=O)CCNC(=O)CCCc3ccc(CC(C(=O)O)C(=O)O)cc3)cc2s1 [A],0.27 µM
